Target: T1, full length active recombinant SYK enzyme (Homo sapiens, UniProt P43405)
T1 construct: full length active recombinant SYK enzyme (Millipore, Calif.); purchased Millipore
Experiment: Inhibition of Syk tyrosine phosphorylation activity (LANCE TR-FRET kinase assay)
Assay type: biochemical

`NC(=O)c1cc(F)c(N[C@@H]2CCCC[C@@H]2N)nc1Nc1cccc2cnccc12` [Example 74, 6-((1R,2S)-2-aminocyclohexylamino)-5-fluoro-2-(isoquinolin-5-ylamino)nicotinamide] and `NC(=O)c1cc(F)c(N[C@@H]2CCCC[C@@H]2N)nc1Nc1cncc2ccccc12` [Example 71, 6-((1R,2S)-2-aminocyclohexylamino)-5-fluoro-2-(isoquinolin-4-ylamino)nicotinamide] fall in the same range of IC50: 1 to 10 nM for the first, 1 to 10 nM for the second.

`CC[C@@H](Nc1nc(Nc2ccc(C3CC[N+](C)([O-])CC3)cc2)c(C(N)=O)cc1F)C(N)=O` (stereo partly drawn) [Example 308, (R)-4-(4-(6-(1-amino-1-oxobutan-2-ylamino)-3-carbamoyl-5-fluoropyridin-2-ylamino)phenyl)-1-methylpiperidine 1-oxide] and `CC[C@@H](Nc1nc(Nc2ccc3c(c2)OCO3)c(C(N)=O)cc1F)C(N)=O` [Example 237, (R)-6-(1-amino-1-oxobutan-2-ylamino)-5-fluoro-2-(benzo[d][1,3]dioxol-5-ylamino)nicotinamide] fall in the same range of IC50: 100 to 1000 nM for the first, 100 to 1000 nM for the second.

`CN1CCC(c2ccc(Nc3nc(N[C@@H]4CCCC[C@@H]4N)c(F)cc3C(N)=O)cc2)CC1` [Example 309, 6-((1R,2S)-2-aminocyclohexylamino)-5-fluoro-2-(4-(1-methylpiperidin-4-yl)phenylamino)nicotinamide] and `NC(=O)c1cc(F)c(N[C@@H]2CCCC[C@@H]2N)nc1Nc1ccc(N2CCOCC2)cc1` [Example 54, 6-((1R,2S)-2-aminocyclohexylamino)-5-fluoro-2-(4-morpholinophenylamino)nicotinamide] fall in the same range of IC50: 10 to 100 nM for the first, 10 to 100 nM for the second.

First: CC[C@@H](Nc1nc(Nc2cccc3c2cnn3C)c(C(N)=O)cc1F)C(N)=O [Example 240, (R)-6-(1-amino-1-oxobutan-2-ylamino)-5-fluoro-2-(1-methyl-1H-indazol-4-ylamino)nicotinamide]
Second: CC[C@@H](Nc1nc(Nc2cnn3ccccc23)c(C(N)=O)cc1F)C(N)=O [Example 424, (R)-6-(1-amino-1-oxobutan-2-ylamino)-5-fluoro-2-(pyrazolo[1,5-a]pyridin-3-ylamino)nicotinamide]
The IC50 of the first is higher: 100 to 1000 nM for the first, 10 to 100 nM for the second.

`CC(C)C[C@@H](Nc1nc(Nc2cccc(Cl)c2)c(C(N)=O)cc1F)C(N)=O` [Example 265, (R)-6-(1-amino-4-methyl-1-oxopentan-2-ylamino)-5-fluoro-2-(3-chlorophenylamino)nicotinamide] and `CC(C)C[C@@H](Nc1nc(Nc2ccc(F)c(Cl)c2)c(C(N)=O)cc1F)C(N)=O` [Example 266, (R)-6-(1-amino-4-methyl-1-oxopentan-2-ylamino)-5-fluoro-2-(3-chloro-4-fluorophenylamino)nicotinamide] fall in the same range of IC50: 10 to 100 nM for the first, 10 to 100 nM for the second.

`N#Cc1cc(C(N)=O)c(Nc2ccc3ncccc3c2)nc1N[C@@H]1CCCC[C@@H]1N` [Example 113, 6-((1R,2S)-2-aminocyclohexylamino)-5-cyano-2-(quinolin-6-ylamino)nicotinamide] and `NC(=O)c1cc(F)c(N[C@@H]2CCCC[C@@H]2N)nc1Nc1ccc2cccnc2c1` [Example 69, 6-((1R,2S)-2-aminocyclohexylamino)-5-fluoro-2-(quinolin-7-ylamino)nicotinamide] fall in the same range of IC50: 1 to 10 nM for the first, 1 to 10 nM for the second.

First: NC(=O)c1cc(F)c(N[C@@H]2CCCC[C@@H]2N)nc1Nc1ccnc(-n2cccn2)c1 [Example 190, 2-(2-(1H-pyrazol-1-yl)pyridin-4-ylamino)-6-((1R,2S)-2-aminocyclohexylamino)-5-fluoronicotinamide]
Second: NC(=O)c1cc(F)c(N[C@@H]2CCCC[C@@H]2N)nc1Nc1cncnc1 [Example 152, 6-((1R,2S)-2-aminocyclohexylamino)-5-fluoro-2-(pyrimidin-5-ylamino)nicotinamide]
The IC50 of the first is lower: 10 to 100 nM for the first, 100 to 1000 nM for the second.

First: CC[C@H](Nc1nc(Nc2ccc(C)cc2)c(C(N)=O)cc1F)C1(N)CC1 [Example 370, (S)-6-(1-(1-aminocyclopropyl)propylamino)-5-fluoro-2-(p-tolylamino)nicotinamide]
Second: CC[C@@H](Nc1nc(Nc2cncc(F)c2)c(C(N)=O)cc1F)C1(N)CC1 [Example 373, (R)-6-(1-(1-aminocyclopropyl)propylamino)-5-fluoro-2-(5-fluoropyridin-3-ylamino)nicotinamide]
The IC50 of the first is higher: over 1000 nM for the first, 10 to 100 nM for the second.

First: NC(=O)c1cc(F)c(N[C@H]2[C@@H](N)CCCC2(F)F)nc1Nc1cccc(Cl)c1 [Example 388, 6-((1S,6S)-6-amino-2,2-difluorocyclohexylamino)-2-(3-chlorophenylamino)-5-fluoronicotinamide]
Second: NC(=O)c1cc(F)c(N[C@@H]2CCCC(F)(F)[C@@H]2N)nc1Nc1ccc2ncsc2c1 [Example 328, 6-((1R,2R)-2-amino-3,3-difluorocyclohexylamino)-2-(benzo[d]thiazol-6-ylamino)-5-fluoronicotinamide]
The IC50 of the first is lower: 1 to 10 nM for the first, 10 to 100 nM for the second. The first is the more potent here.

First: Cc1cc(Nc2cc(N[C@H](C)C(N)=O)ccc2C(N)=O)sn1 [Example 10, (R)-4-(1-amino-1-oxopropan-2-ylamino)-2-(3-methylisothiazol-5-ylamino)benzamide]
Second: Cc1cc(Nc2cc(N[C@H](CC3CC3)C(N)=O)ccc2C(N)=O)sn1 [Example 35, (R)-4-(1-amino-3-cyclopropyl-1-oxopropan-2-ylamino)-2-(3-methylisothiazol-5-ylamino)benzamide]
The IC50 of the first is higher: 100 to 1000 nM for the first, 10 to 100 nM for the second. The second is the more potent here.

`Cc1cc(Nc2nc(N[C@H](CC3CC3)C(N)=O)c(F)cc2C(N)=O)sn1` [Example 253, (R)-6-(1-amino-3-cyclopropyl-1-oxopropan-2-ylamino)-5-fluoro-2-(3-methylisothiazol-5-ylamino)nicotinamide] and `CC[C@@H](Nc1nc(Nc2ccc3ccncc3c2)c(C(N)=O)cc1F)C(N)=O` [Example 98, (R)-6-(1-amino-1-oxobutan-2-ylamino)-5-fluoro-2-(isoquinolin-7-ylamino)nicotinamide] fall in the same range of IC50: 10 to 100 nM for the first, 10 to 100 nM for the second.

First: NC(=O)c1cc(F)c(NC2(C(N)=O)CCCC2)nc1Nc1cnc2ccccc2c1 [Example 376, 6-(1-carbamoylcyclopentylamino)-5-fluoro-2-(quinolin-3-ylamino)nicotinamide]
Second: NC(=O)c1ccc(N[C@@H]2CCCC[C@@H]2N)nc1Nc1cnc2ccccc2c1 [Example 185, 6-((1R,2S)-2-aminocyclohexylamino)-2-(quinolin-3-ylamino)nicotinamide]
The IC50 of the first is higher: 100 to 1000 nM for the first, 1 to 10 nM for the second. The second is the more potent here.

Compared with `Cc1cc(Nc2nc(N[C@@H]3CCCC[C@@H]3N)ccc2C(N)=O)sn1` [Example 182, 6-((1R,2S)-2-aminocyclohexylamino)-2-(3-methylisothiazol-5-ylamino)nicotinamide], `NC(=O)c1ccc(N[C@@H]2CCNC2)nc1Nc1ccc2ncccc2c1` [Example 383, (R)-6-(pyrrolidin-3-ylamino)-2-(quinolin-6-ylamino)nicotinamide] is higher in IC50: 1 to 10 nM for the first, over 1000 nM for the second.

Compared with `CC[C@@H](Nc1nc(Nc2ccc3cnccc3c2)c(C(N)=O)cc1F)C(N)=O` [Example 99], `COC[C@H](CN)Nc1nc(Nc2cccc(-n3nccn3)c2)c(C(N)=O)cc1F` [Example 91, (S)-2-(3-(2H-1,2,3-triazol-2-yl)phenylamino)-6-(1-amino-3-methoxypropan-2-ylamino)-5-fluoronicotinamide] is lower in IC50: 10 to 100 nM for the first, 1 to 10 nM for the second. The second is the more potent here.

From patent US8846928B2 (Portola Pharmaceuticals, Inc., priority 2010, dated 2014)
